# From patent US9683019B2, “Cyclic polypeptides for the treatment of heart failure” (priority 2013, dated 2017)
# Where a SMILES comes first, the peptide text is derived from it. Bridges are numbered along the chain shown (N, C = ends). [ ]: non-standard residue; d: D form. The star is where a group is joined. pGlu = O=C1CC[C@@H](C(=O)O)N1; NHPhenethyl = c1ccc(CCN*)cc1; d(hCys) = N[C@H](CCS)C(=O)O; dNle = CCCC[C@@H](N)C(=O)O; dNva = CCC[C@@H](N)C(=O)O; hCys = N[C@@H](CCS)C(=O)O; Nle = CCCC[C@H](N)C(=O)O; dAbu = CC[C@@H](N)C(=O)O
# Legend:
# [1] = Surrogate Activity-Based Plasma Stability Assay; format: in vitro ADME; settings: rat
# Excerpt: Surrogate Activity-Based Plasma Stability Assay:
# 2) Calculate slope of value above and […]
# hAPJ = target: T1, hAPJ (Homo sapiens, UniProt P35414); assay: hAPJ Calcium Flux Assay; format: cell-based; settings: Chem-5 APJ stable cells, calcium flux stimulation; read-out: hAPJ Ca2+ Flux EC50
# T1 sequence (P35414 1-380): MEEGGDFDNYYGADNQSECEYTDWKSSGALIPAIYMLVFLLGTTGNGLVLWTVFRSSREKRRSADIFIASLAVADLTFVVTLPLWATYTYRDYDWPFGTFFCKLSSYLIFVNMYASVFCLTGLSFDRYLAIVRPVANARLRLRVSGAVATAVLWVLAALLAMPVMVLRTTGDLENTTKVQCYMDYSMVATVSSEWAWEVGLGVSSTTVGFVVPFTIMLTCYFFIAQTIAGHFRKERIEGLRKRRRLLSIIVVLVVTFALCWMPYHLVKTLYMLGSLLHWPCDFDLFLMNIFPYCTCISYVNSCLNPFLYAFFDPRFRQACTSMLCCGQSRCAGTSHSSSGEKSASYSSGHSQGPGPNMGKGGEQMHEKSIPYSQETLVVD
# Experimental: Chem-5 APJ stable cells (Millipore # HTS068C) were plated in 384-well format with 10,000 cells/well in 25 ul growth media, then grown 24 hours in a 37° C. tissue culture incubator. One hour before the assay, 25 ul/well FLIPR Calcium 4 dye (Molecular Devices R8142) with 2.5 mM probenecid was added, and cells were incubated one hour in a 37° C. tissue culture incubator. Peptides were solubilized in HBSS, HEPES & 0.1% BSA buffer, and serially-diluted 10-fold, from 50 uM to 5 pM, in triplicate. FLIPR Tetra was used to add peptide to the cells with dye (1:5, for final peptide concentrations ranging from 10 uM to 1 pM). FLIPR dye inside the cells emitted fluorescence after binding to calcium, while fluorescence from outside the cells was masked. […] Readings were done for 3 minutes total, beginning 10 seconds before the peptide addition. Maximum-minimum values were calculated and plotted for each peptide concentration, and GraphPad prism software was used to calculate EC50 values at the curve inflection points, for calcium flux stimulation by peptides.
SMILES,half-life [1],EC50 (hAPJ)
"CCCC[C@H](NC(=O)[C@@H]1CCCN1C(=O)CNC(=O)[C@H](CCCCN)NC(=O)[C@@H]1CCSSC[C@H](NC(C)=O)C(=O)N[C@@H](CCCNC(=N)N)C(=O)N2CCC[C@H]2C(=O)N[C@@H](CCCNC(=N)N)C(=O)N[C@@H](CC(C)C)C(=O)N[C@@H](CO)C(=O)N1)C(=O)N1CCC[C@H]1C(=O)N[C@@H](Cc1ccccc1)C(=O)O [Example 6, Ac-C*-R-P-R-L-S-hC*-K-G-P-Nle-P-F-OH] (Ac-CRPRLS[hCys]KGP[Nle]PF-OH; disulfide 1-7)",5 min,21.4 nM
"CC(C)C[C@@H]1NC(=O)[C@@H](NC(=O)[C@@H]2CCCN2C(=O)[C@H](CCCNC(=N)N)NC(=O)[C@@H]2CCC(=O)N2)CCSSC[C@@H](C(=O)N[C@@H](CCCCN)C(=O)NCC(=O)N2CCC[C@H]2C(=O)N[C@H](Cc2ccccc2)C(=O)N[C@H](C)C(=O)N[C@H](Cc2ccccc2)C(=O)O)NC(=O)[C@H](CO)NC1=O [Example 36, pE-R-P-hC*-L-S-C*-K-G-P-f-a-f-OH] ([pGlu]RP[hCys]LSCKGP[dF][dA][dF]-OH; disulfide 4-7)",34 min,4.2 nM
"CCCC[C@@H](NC(=O)[C@@H]1CCCN1C(=O)CNC(=O)[C@H](CCCCN)NC(=O)[C@@H]1CSSC[C@H](NC(=O)[C@H](CCCNC(=N)N)NC(=O)[C@@H]2CCC(=O)N2)C(=O)N[C@@H](CCCNC(=N)N)C(=O)N[C@@H](CC(C)C)C(=O)N[C@@H](CO)C(=O)N1)C(=O)N[C@H](C)C(=O)N[C@H](Cc1ccccc1)C(=O)O [Example 21, pE-R-C*-R-L-S-C*-K-G-P-(D-Nle)-a-f-OH] ([pGlu]RCRLSCKGP[dNle][dA][dF]-OH; disulfide 3-7)",> 1000 min,
"CCCC[C@H](NC(=O)[C@@H]1CCCN1C(=O)CNC(=O)[C@H](CCCCN)NC(=O)[C@@H]1CSSC[C@@H](NC(C)=O)C(=O)N[C@@H](CCCNC(=N)N)C(=O)N2CCC[C@H]2C(=O)N[C@@H](CCCNC(=N)N)C(=O)N[C@@H](CC(C)C)C(=O)N[C@@H](CO)C(=O)N1)C(=O)N1CCC[C@H]1C(=O)N[C@@H](Cc1ccccc1)C(=O)O [Example 12, Ac-c*-R-P-R-L-S-C*-K-G-P-Nle-P-F-OH] (Ac-[dC]RPRLSCKGP[Nle]PF-OH; disulfide 1-7)",10 min,21.4 nM
"CCCC[C@H](NC(=O)[C@@H]1CCCN1C(=O)CNC(=O)[C@H](CCCCN)NC(=O)[C@@H]1CSSC[C@H](NC(C)=O)C(=O)N[C@@H](CCCNC(=N)N)C(=O)N2CCC[C@H]2C(=O)N[C@@H](CCCNC(=N)N)C(=O)N[C@@H](CC(C)C)C(=O)N[C@@H](CO)C(=O)N1)C(=O)N1CCC[C@H]1C(=O)NCCc1ccccc1 [Example 2, Ac-C*-R-P-R-L-S-C*-K-G-P-Nle-P-NH(Phenethyl)] (Ac-CRPRLSCKGP[Nle]P-NHPhenethyl; disulfide 1-7)",39 min,
"CCCC[C@@H](NC(=O)[C@@H]1CCCN1C(=O)CNC(=O)[C@H](CCCCN)NC(=O)[C@@H]1CSSC[C@H](NC(=O)[C@H](CCCNC(=N)N)NC(=O)[C@@H]2CCC(=O)N2)C(=O)N[C@@H](CCCNC(=N)N)C(=O)N[C@@H](CC(C)C)C(=O)N[C@@H](CO)C(=O)N1)C(N)=O [Example 25, pE-R-C*-R-L-S-C*-K-G-P-(D-Nle)-NH2] ([pGlu]RCRLSCKGP[dNle]-NH2; disulfide 3-7)",> 1000 min,
"CCCC[C@H](NC(=O)[C@@H]1CCCN1C(=O)CNC(=O)[C@H](CCCCN)NC(=O)[C@@H]1CSSC[C@H](NC(=O)[C@@H]2CCCN2C(=O)[C@H](CCCNC(=N)N)NC(=O)[C@@H]2CCC(=O)N2)C(=O)N[C@@H](CC(C)C)C(=O)N[C@@H](CO)C(=O)N1)C(=O)N1CCC[C@H]1C(=O)NCCc1ccccc1 [Example 30, pE-R-P-C*-L-S-C*-K-G-P-Nle-P-NH(Phenethyl)]",661 min,
"CCCC[C@@H](NC(=O)[C@@H]1CCCN1C(=O)CNC(=O)[C@H](CCCCN)NC(=O)[C@@H]1CSSC[C@H](NC(=O)[C@@H]2CCCN2C(=O)[C@H](CCCNC(=N)N)NC(=O)[C@@H]2CCC(=O)N2)C(=O)N[C@@H](CC(C)C)C(=O)N[C@@H](CO)C(=O)N1)C(=O)N[C@H](Cc1ccccc1)C(=O)O [Example 34, pE-R-P-C*-L-S-C*-K-G-P-(D-Nle)-f-OH] ([pGlu]RPCLSCKGP[dNle][dF]-OH; disulfide 4-7)",> 1000 min,

# Results, then the compound that gave them:
half-life [1],EC50 (hAPJ),SMILES
17.7 min,193 nM,"CCCC[C@H](NC(=O)[C@@H]1CCCN1C(=O)CNC(=O)[C@H](CCCCN)NC(=O)[C@H]1CSSC[C@H](NC(C)=O)C(=O)N[C@@H](CCCNC(=N)N)C(=O)N2CCC[C@H]2C(=O)N[C@@H](CCCNC(=N)N)C(=O)N[C@@H](CC(C)C)C(=O)N[C@@H](CO)C(=O)N1)C(=O)N1CCC[C@H]1C(=O)N[C@@H](Cc1ccccc1)C(=O)O [Example 15, Ac-C*-R-P-R-L-S-c*-K-G-P-Nle-P-F-OH] (Ac-CRPRLS[dC]KGP[Nle]PF-OH; disulfide 1-7)"
52 min,,"CC(C)C[C@@H]1NC(=O)[C@H](CCCNC(=N)N)NC(=O)[C@@H](NC(=O)[C@H](CCCNC(=N)N)NC(=O)[C@@H]2CCC(=O)N2)CSSCC[C@H](C(=O)N[C@@H](CCCCN)C(=O)NCC(=O)N2CCC[C@H]2C(=O)N[C@H](Cc2ccccc2)C(=O)N[C@H](C)C(=O)N[C@H](Cc2ccccc2)C(=O)O)NC(=O)[C@H](CO)NC1=O [Example 26, pE-R-C*-R-L-S-(D-hC)*-K-G-P-f-a-f-OH] ([pGlu]RCRLS[d(hCys)]KGP[dF][dA][dF]-OH; disulfide 3-7)"
506 min,,"CCCC[C@H](NC(=O)[C@@H]1CCCN1C(=O)CNC(=O)[C@H](CCCCN)NC(=O)[C@@H]1CSSC[C@H](NC(C)=O)C(=O)N[C@@H](CCCNC(=N)N)C(=O)N2CCC[C@H]2C(=O)N[C@@H](CCCNC(=N)N)C(=O)N[C@@H](CC(C)C)C(=O)N[C@@H](CO)C(=O)N1)C(=O)N1CCC[C@H]1C(N)=O [Example 4, Ac-C*-R-P-R-L-S-C*-K-G-P-Nle-P-NH2] (Ac-CRPRLSCKGP[Nle]P-NH2; disulfide 1-7)"
82 min,,"CCCC[C@@H](NC(=O)[C@@H]1CCCN1C(=O)CNC(=O)[C@H](CCCCN)NC(=O)[C@@H]1CSSC[C@@H](NC(=O)[C@H](CCCNC(=N)N)NC(=O)[C@@H]2CCC(=O)N2)C(=O)N[C@@H](CCCNC(=N)N)C(=O)N[C@@H](CC(C)C)C(=O)N[C@@H](CO)C(=O)N1)C(=O)N[C@H](CC)C(=O)N[C@H](Cc1ccccc1)C(=O)O [Example 27, pE-R-c*-R-L-S-C*-K-G-P-(D-Nle)-(D-abu)-f-OH] ([pGlu]R[dC]RLSCKGP[dNle][dAbu][dF]-OH; disulfide 3-7)"
11.4 min,,"CCCC[C@H](NC(=O)[C@@H]1CCCN1C(=O)CNC(=O)[C@H](CCCCN)NC(=O)[C@H]1CCSSCC[C@@H](NC(C)=O)C(=O)N[C@@H](CCCNC(=N)N)C(=O)N2CCC[C@H]2C(=O)N[C@@H](CCCNC(=N)N)C(=O)N[C@@H](CC(C)C)C(=O)N[C@@H](CO)C(=O)N1)C(=O)N1CCC[C@H]1C(=O)N[C@@H](Cc1ccccc1)C(=O)O [Example 17, Ac-(D-hC)*-R-P-R-L-S-(D-hC)*-K-G-P-Nle-P-F-OH] (Ac-[d(hCys)]RPRLS[d(hCys)]KGP[Nle]PF-OH; disulfide 1-7)"
9 min,,"CCCC[C@H](NC(=O)[C@@H]1CCCN1C(=O)CNC(=O)[C@H](CCCCN)NC(=O)[C@@H]1CCSSCC[C@H](NC(C)=O)C(=O)N[C@@H](CCCNC(=N)N)C(=O)N2CCC[C@H]2C(=O)N[C@@H](CCCNC(=N)N)C(=O)N[C@@H](CC(C)C)C(=O)N[C@@H](CO)C(=O)N1)C(=O)N1CCC[C@H]1C(=O)N[C@@H](Cc1ccccc1)C(=O)O [Example 7, Ac-hC*-R-P-R-L-S-hC*-K-G-P-Nle-P-F-OH] (Ac-[hCys]RPRLS[hCys]KGP[Nle]PF-OH; disulfide 1-7)"
41 min,,"CCCC[C@@H](NC(=O)[C@@H]1CCCN1C(=O)CNC(=O)[C@H](CCCCN)NC(=O)[C@@H]1CCSSCC[C@@H](NC(=O)[C@@H]2CCCN2C(=O)[C@H](CCCNC(=N)N)NC(=O)[C@@H]2CCC(=O)N2)C(=O)N[C@@H](CC(C)C)C(=O)N[C@@H](CO)C(=O)N1)C(=O)N[C@H](CCC)C(=O)N[C@H](Cc1ccccc1)C(=O)O [Example 38, pE-R-P-(D-hC)*-L-S-hC*-K-G-P-(D-Nle)-(D-Nva)-f-OH] ([pGlu]RP[d(hCys)]LS[hCys]KGP[dNle][dNva][dF]-OH; disulfide 4-7)"
662 min,,"CCCC[C@H](NC(=O)[C@@H]1CCCN1C(=O)CNC(=O)[C@H](CCCCN)NC(=O)[C@@H]1CSSC[C@H](NC(C)=O)C(=O)N[C@@H](CCCNC(=N)N)C(=O)N2CCC[C@H]2C(=O)N[C@@H](CCCNC(=N)N)C(=O)N[C@@H](CC(C)C)C(=O)N[C@@H](CO)C(=O)N1)C(=O)N1CCC[C@H]1C(=O)N[C@H](C)C(=O)O [Example 8, Ac-C*-R-P-R-L-S-C*-K-G-P-Nle-P-a-OH] (Ac-CRPRLSCKGP[Nle]P[dA]-OH; disulfide 1-7)"
